How the values were obtained:
human α4β2 nAChR = human α4β2 nAChR (Homo sapiens, UniProt P17787+P43681); format: binding
human M4 mAChR = test: [3H]NMS binding inhibition, CHO cell membranes, M4; conditions: 1 μM
human M3 mAChR = test: [3H]NMS binding inhibition, CHO cell membranes, M3; conditions: 1 μM
calcium channels = test: Broad receptor binding screening; conditions: 10 μM
human M5 mAChR = test: [3H]NMS binding inhibition, CHO cell membranes, M5; conditions: 1 μM, M5, [3H]NMS
chimeric α7-5HT3 nAChR = chimeric α7-5HT3 nAChR (UniProt P22770+P23979, M226I/T225I); format: binding; conditions: read-out: Ki ± SEM; α7–5HT3 (chick), [125I]α-BTX
human M1 mAChR = test: [3H]NMS binding inhibition, CHO cell membranes, M1; conditions: 1 μM
human α7 nAChR = human α7 nAChR (Homo sapiens, UniProt P36544); format: cell-based
human α3β2 nAChR = human α3β2 nAChR (Homo sapiens, UniProt P17787+P32297); format: binding; conditions: read-out: Ki ± SEM, [3H]epibatidine
human M2 mAChR = test: [3H]NMS binding inhibition, CHO cell membranes, M2; conditions: 1 μM
mice = conditions: intraperitoneal injection of a lethal dose
α1_2βγδ (Torpedo) nAChR [1] = test: Equilibrium competition binding with [125I]α-BTX on Torpedo membranes; conditions: read-out: Ki ± SEM
α1_2βγδ (Torpedo) nAChR [2] = conditions: read-out: Kd of radioligand on muscle-type receptor; cited from earlier work

Molecule | Fraction of [3H]epibatidine displaced (partial antagonist property) (human α4β2 nAChR) | Ki (human α4β2 nAChR; read-out: Ki ± SEM, α4β2 (human), [3H]epibatidine) | Effect on 3H-NMS binding (human M4 mAChR) | Effect on 3H-NMS binding (human M3 mAChR) | Binding activity for calcium channels (calcium channels) | Radiotracer displacement (human M5 mAChR) | Ki (chimeric α7-5HT3 nAChR) | Effect on 3H-NMS binding (human M1 mAChR) | Effect on rate of desensitization of ACh-evoked currents (human α7 nAChR; 350 μM ACh, −60 mV) | Direct agonist effect (current evoked when applied on its own) (human α7 nAChR; 0.1–50 nM, n = 6) | Reversibility of blocking action on α7 nAChR (human α7 nAChR; after a 10–15 min washout) | Ki (human α3β2 nAChR) | Effect on 3H-NMS binding (human M2 mAChR) | Toxicological profile (symptoms) (mice) | Ki (α1_2βγδ (Torpedo) nAChR [1]) | Kd (α1_2βγδ (Torpedo) nAChR [2])
C=C1CCCC2=NC[C@H](C)[C@@H](C)C[C@@]23CCC(C(=O)O)=C[C@@H]3[C@@H]2O[C@]3(C[C@H]4CCC[C@@]5(CC[C@@]6(O[C@@H](CC[C@@]6(C)O)C1)O5)O4)C[C@@H](C)[C@@H](O)[C@H]2O3 [PnTX A, pinnatoxin A] | approximately half | 15.6 ± 5.2 nM | no significant effect | no significant effect | no significant binding activity | 35% | 0.35 ± 0.04 nM | no significant effect | did not appear to affect the rate of desensitization | did not evoke any current | not reversible | 9.4 ± 1.9 nM | no significant effect | transient mouse hyperactivity, followed by a decrease in respiratory rate with prominent abdominal breathing leading to death due to respiratory paralysis | 2.8 ± 0.03 nM | 
α-bungarotoxin [α-BTX] |  |  |  |  |  |  |  |  |  |  |  |  |  |  |  | 0.05 nM
